Reference: patent US11497752B2, “Compounds and uses thereof” (Foghorn Therapeutics Inc., priority 2018, dated 2022)

Assays:
BRM = BRM (Homo sapiens, UniProt P51531); assay: ATPase catalytic activity of BRM (ADP-Glo in vitro biochemical assay); conditions: for BRM Max % Inhibition: Table 6
BRG-1 = BRG-1 (Homo sapiens, UniProt P51532); assay: ATPase catalytic activity of BRG-1 (ADP-Glo in vitro biochemical assay); conditions: for BRG1 Max % Inhibition: Table 6
BRG-1, sequence (P51532 whole entry): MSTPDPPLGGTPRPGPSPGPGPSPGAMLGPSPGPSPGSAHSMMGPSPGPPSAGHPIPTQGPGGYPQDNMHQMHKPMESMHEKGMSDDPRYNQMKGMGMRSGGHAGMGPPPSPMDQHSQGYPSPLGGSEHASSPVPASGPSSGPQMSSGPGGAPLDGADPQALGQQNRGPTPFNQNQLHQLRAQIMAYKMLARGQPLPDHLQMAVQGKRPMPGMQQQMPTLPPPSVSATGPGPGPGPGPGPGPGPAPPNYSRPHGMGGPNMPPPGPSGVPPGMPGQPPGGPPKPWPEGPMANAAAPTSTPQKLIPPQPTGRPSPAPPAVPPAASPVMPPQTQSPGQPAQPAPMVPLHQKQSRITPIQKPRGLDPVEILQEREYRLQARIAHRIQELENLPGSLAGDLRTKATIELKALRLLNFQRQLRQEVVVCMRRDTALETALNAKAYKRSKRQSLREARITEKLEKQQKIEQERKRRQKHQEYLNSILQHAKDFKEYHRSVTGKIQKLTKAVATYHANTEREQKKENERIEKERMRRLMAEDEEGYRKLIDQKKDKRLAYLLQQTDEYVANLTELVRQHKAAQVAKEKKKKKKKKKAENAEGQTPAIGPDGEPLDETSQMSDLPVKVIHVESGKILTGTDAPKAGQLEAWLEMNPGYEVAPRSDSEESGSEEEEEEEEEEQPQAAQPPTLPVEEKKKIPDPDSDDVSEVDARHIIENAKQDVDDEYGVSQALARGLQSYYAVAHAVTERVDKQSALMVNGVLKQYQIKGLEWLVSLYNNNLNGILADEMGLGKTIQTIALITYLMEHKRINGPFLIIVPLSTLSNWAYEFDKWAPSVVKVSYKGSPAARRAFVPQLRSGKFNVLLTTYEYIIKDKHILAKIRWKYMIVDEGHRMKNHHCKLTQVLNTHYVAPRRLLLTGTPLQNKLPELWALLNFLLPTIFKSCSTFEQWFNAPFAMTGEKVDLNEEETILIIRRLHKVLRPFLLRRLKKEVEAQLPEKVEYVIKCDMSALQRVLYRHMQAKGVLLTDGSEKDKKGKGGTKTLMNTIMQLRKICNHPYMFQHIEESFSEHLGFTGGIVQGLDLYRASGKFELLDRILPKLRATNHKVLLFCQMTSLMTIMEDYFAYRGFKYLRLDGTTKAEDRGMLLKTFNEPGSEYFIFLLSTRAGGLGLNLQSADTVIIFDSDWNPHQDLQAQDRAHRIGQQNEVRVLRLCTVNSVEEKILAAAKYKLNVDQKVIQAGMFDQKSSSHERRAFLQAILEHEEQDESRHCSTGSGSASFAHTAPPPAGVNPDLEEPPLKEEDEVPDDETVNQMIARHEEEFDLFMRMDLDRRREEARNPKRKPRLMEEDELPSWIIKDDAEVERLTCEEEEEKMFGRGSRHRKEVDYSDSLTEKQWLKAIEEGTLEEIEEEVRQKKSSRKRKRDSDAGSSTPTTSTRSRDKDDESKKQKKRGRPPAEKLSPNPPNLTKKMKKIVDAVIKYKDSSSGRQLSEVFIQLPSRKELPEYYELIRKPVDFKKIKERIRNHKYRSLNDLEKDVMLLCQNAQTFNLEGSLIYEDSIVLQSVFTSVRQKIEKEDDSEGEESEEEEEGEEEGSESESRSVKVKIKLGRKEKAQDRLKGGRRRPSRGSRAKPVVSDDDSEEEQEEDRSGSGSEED

BRM, sequence (P51531 whole entry): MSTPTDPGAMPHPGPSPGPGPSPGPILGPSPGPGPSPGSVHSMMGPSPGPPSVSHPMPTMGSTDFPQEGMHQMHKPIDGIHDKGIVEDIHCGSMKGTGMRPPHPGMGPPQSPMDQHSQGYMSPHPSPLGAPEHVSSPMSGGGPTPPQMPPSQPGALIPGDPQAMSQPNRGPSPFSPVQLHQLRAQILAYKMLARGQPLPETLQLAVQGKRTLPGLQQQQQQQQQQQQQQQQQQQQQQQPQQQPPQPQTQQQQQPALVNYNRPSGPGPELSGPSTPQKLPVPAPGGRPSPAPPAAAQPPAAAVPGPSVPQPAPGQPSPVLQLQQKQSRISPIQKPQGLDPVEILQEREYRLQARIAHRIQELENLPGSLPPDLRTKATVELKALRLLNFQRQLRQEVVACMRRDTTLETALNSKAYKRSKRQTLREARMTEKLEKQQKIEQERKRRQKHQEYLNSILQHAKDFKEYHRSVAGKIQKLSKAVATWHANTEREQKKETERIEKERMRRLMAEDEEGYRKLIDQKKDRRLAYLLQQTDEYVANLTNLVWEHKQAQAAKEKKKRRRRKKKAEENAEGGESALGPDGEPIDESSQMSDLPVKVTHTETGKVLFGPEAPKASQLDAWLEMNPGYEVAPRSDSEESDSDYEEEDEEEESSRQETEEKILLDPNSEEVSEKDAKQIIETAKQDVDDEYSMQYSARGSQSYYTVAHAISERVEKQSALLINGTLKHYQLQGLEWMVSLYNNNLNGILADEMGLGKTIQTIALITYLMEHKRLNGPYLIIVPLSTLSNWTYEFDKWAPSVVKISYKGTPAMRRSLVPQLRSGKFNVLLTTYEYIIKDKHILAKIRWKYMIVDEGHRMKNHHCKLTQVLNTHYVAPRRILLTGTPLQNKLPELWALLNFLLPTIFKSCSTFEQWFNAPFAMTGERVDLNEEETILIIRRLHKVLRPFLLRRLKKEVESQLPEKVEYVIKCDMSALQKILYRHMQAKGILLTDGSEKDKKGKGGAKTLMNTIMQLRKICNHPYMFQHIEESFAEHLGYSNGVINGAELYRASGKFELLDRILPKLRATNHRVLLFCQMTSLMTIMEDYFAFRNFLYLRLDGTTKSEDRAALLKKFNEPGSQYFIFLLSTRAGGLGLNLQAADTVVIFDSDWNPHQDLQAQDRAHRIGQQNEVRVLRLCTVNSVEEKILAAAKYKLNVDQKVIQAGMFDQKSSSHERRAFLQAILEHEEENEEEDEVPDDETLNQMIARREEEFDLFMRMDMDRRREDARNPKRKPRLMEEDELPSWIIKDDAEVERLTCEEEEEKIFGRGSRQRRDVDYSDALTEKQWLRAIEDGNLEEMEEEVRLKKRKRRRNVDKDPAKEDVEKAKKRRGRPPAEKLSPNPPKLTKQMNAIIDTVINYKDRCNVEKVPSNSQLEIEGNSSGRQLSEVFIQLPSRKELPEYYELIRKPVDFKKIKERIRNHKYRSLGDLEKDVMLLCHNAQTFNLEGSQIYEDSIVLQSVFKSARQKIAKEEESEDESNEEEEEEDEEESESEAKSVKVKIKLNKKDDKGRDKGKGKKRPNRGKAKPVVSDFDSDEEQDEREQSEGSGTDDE

IC50 (BRM) | BRM Max % Inhibition (BRM) | IC50 (BRG-1) | BRG1 Max % Inhibition (BRG-1) | Structure (SMILES)
100 to 1000 nM | >80% | 100 to 1000 nM | >80% | NC[C@H]1CC[C@H](c2cccc(-c3csc(NC(=O)CNC(=O)c4ccc(N)cc4)n3)c2)CC1 [Compound 174, 4-amino-N-(2-((4-(3-((1r,4r)-4-(aminomethyl)cyclohexyl)phenyl)thiazol-2-yl)amino)-2-oxoethyl)benzamide]
100 to 1000 nM | >90% | 100 to 1000 nM | >80% | NC[C@H]1CC[C@@H](c2cccc(-c3csc(NC(=O)CNC(=O)c4ccc(N)cc4)n3)c2)CC1 [Compound 175, 4-amino-N-(2-((4-(3-((1s,4s)-4-(aminomethyl)cyclohexyl)phenyl)thiazol-2-yl)amino)-2-oxoethyl)benzamide]
100 to 1000 nM | >90% | 100 to 1000 nM | >80% | Nc1ccc(C(=O)NCC(=O)Nc2nc(-c3cccc(-c4cnn(CC(=O)O)c4)c3)cs2)cc1 [Compound 176, 2-(4-(3-(2-(2-(4-aminobenzamido)acetamido)thiazol-4-yl)phenyl)-1H-pyrazol-1-yl)acetic acid]
< 100 nM | >95% | < 100 nM | >95% | COC(=O)Cc1cc(-c2cccc(-c3csc(NC(=O)CNC(=O)c4ccc(N)cc4)n3)c2)ccn1 [Compound 177, methyl 2-(4-(3-(2-(2-(4-aminobenzamido)acetamido)thiazol-4-yl)phenyl)pyridin-2-yl)acetate]
< 100 nM | >95% | < 100 nM | >95% | COCC[C@H](NC(=O)c1ccc(N)cc1)C(=O)Nc1nc(-c2cccc(-c3ccncc3)c2)cs1 [Compound 178, (S)-4-amino-N-(4-methoxy-1-oxo-1-((4-(3-(pyridin-4-yl)phenyl)thiazol-2-yl)amino)butan-2-yl)benzamide]
100 to 1000 nM | >90% | 100 to 1000 nM | >95% | Nc1ccc(C(=O)NCC(=O)Nc2nc(-c3cccc(N4CCOCC4)c3)cs2)cc1 [Compound 179, 4-amino-N-(2-((4-(3-morpholinophenyl)thiazol-2-yl)amino)-2-oxoethyl)benzamide]

The remaining lines, values behind:

Structure (SMILES) | IC50 (BRM) | BRM Max % Inhibition (BRM) | IC50 (BRG-1) | BRG1 Max % Inhibition (BRG-1)
Nc1ccc(C(=O)NCC(=O)Nc2nc(C3CCCN(c4cccnc4)C3)cs2)cc1 (stereo not shown) [Compound 173, 4-amino-N-(2-oxo-2-((4-(1-(pyridin-3-yl)piperidin-3-yl)thiazol-2-yl)amino)ethyl)benzamide] | 100 to 1000 nM | >90% | 100 to 1000 nM | >90%
COC(=O)Cn1cc(-c2cccc(-c3csc(NC(=O)CNC(=O)c4ccc(N)cc4)n3)c2)cn1 [Compound 180, methyl 2-(4-(3-(2-(2-(4-aminobenzamido)acetamido)thiazol-4-yl)phenyl)-1H-pyrazol-1-yl)acetate] | 100 to 1000 nM | >90% | 100 to 1000 nM | >95%
COC(=O)c1cc(-c2cccc(-c3csc(NC(=O)CNC(=O)c4ccc(N)cc4)n3)c2)ccn1 [Compound 181, methyl 4-(3-(2-(2-(4-aminobenzamido)acetamido)thiazol-4-yl)phenyl)picolinate] | < 100 nM | >95% | < 100 nM | >95%
COC(=O)C(C)(C)c1cc(-c2cccc(-c3csc(NC(=O)CNC(=O)c4ccc(N)cc4)n3)c2)ccn1 [Compound 182, methyl 2-(4-(3-(2-(2-(4-aminobenzamido)acetamido)thiazol-4-yl)phenyl)pyridin-2-yl)-2-methylpropanoate] | < 100 nM | >95% | 100 to 1000 nM | >90%
